Measurements published in ChEMBL document CHEMBL4665624, “Synthesis of 5-(4-(1H-phenanthro[9,10-d]imidazol-2-yl)benzylidene)thiazolidine-2,4-dione as promising DNA and serum albumin-binding agents and evaluation of antitumor activity” (Eur J Med Chem, 2019).

What follows are molecules tested on NCI-H522 (assay: Antitumor activity against human NCI-H522 cells assessed as cell growth inhibition at 10 uM incubated for 48 hrs by sulforhodamine B assay). Details: read-out: GI.
Format: functional

Row | Structure (SMILES) | inhibition of growth at 10 µM
1 | Oc1ccccc1-c1nc2c3ccccc3c3ccccc3c2[nH]1 | < 10%

The molecules below were run on MDA-MB-231 (assay: Antitumor activity against human MDA-MB-231/ATCC cells assessed as cell growth inhibition at 10 uM incubated for 48 hrs by sulforhodamine B assay). Details: read-out: GI.
Format: functional

Row | Structure (SMILES) | inhibition of growth at 10 µM
2 | Oc1ccccc1-c1nc2c3ccccc3c3ccccc3c2[nH]1 | 23.8%

The molecules below were run on PC-3 (assay: Antitumor activity against human PC-3 cells assessed as cell growth inhibition at 10 uM incubated for 48 hrs by sulforhodamine B assay). Details: read-out: GI.
Format: functional

Row | Structure (SMILES) | inhibition of growth at 10 µM
3 | Oc1ccccc1-c1nc2c3ccccc3c3ccccc3c2[nH]1 | 11.8%

The molecules below were run on SW-620 (assay: Antitumor activity against human SW620 cells assessed as cell growth inhibition at 10 uM incubated for 48 hrs by sulforhodamine B assay). Details: SW-620, 48 h, read-out: GI.

Row | Structure (SMILES) | inhibition of growth at 10 µM
4 | Oc1ccccc1-c1nc2c3ccccc3c3ccccc3c2[nH]1 | < 10%

These molecules were tested on MOLT-4 (assay: Antitumor activity against human MOLT4 cells assessed as cell growth inhibition at 10 uM incubated for 48 hrs by sulforhodamine B assay). Details: read-out: GI.
Format: functional

Row | Structure (SMILES) | inhibition of growth at 10 µM
5 | Oc1ccccc1-c1nc2c3ccccc3c3ccccc3c2[nH]1 | < 10%

What follows are molecules tested on BT-549 (assay: Antitumor activity against human BT-549 cells assessed as cell growth inhibition at 10 uM incubated for 48 hrs by sulforhodamine B assay). Details: read-out: GI.
Format: functional

Row | Structure (SMILES) | inhibition of growth at 10 µM
6 | Oc1ccccc1-c1nc2c3ccccc3c3ccccc3c2[nH]1 | < 10%

Each molecule was assayed on HL-60(TB) (assay: Antitumor activity against human HL-60(TB) cells assessed as cell growth inhibition at 10 uM incubated for 48 hrs by sulforhodamine B assay). Details: read-out: GI.
Format: functional

Row | Structure (SMILES) | inhibition of growth at 10 µM
7 | Oc1ccccc1-c1nc2c3ccccc3c3ccccc3c2[nH]1 | < 10%

These molecules were tested on MDA-MB-435 (assay: Antitumor activity against human MDA-MB-435 cells assessed as cell growth inhibition at 10 uM incubated for 48 hrs by sulforhodamine B assay). Details: read-out: GI.
Format: functional

Row | Structure (SMILES) | inhibition of growth at 10 µM
8 | Oc1ccccc1-c1nc2c3ccccc3c3ccccc3c2[nH]1 | < 10%

Each molecule was assayed on NCI-H460 (assay: Antitumor activity against human NCI-H460 assessed as cell growth inhibition at 10 uM incubated for 48 hrs by sulforhodamine B assay). Details: read-out: GI.
Format: functional

Row | Structure (SMILES) | inhibition of growth at 10 µM
9 | Oc1ccccc1-c1nc2c3ccccc3c3ccccc3c2[nH]1 | < 10%

The molecules below were run on SR (assay: Antitumor activity against human SR cells assessed as cell growth inhibition at 10 uM incubated for 48 hrs by sulforhodamine B assay). Details: read-out: GI.
Format: functional

Row | Structure (SMILES) | inhibition of growth at 10 µM
10 | Oc1ccccc1-c1nc2c3ccccc3c3ccccc3c2[nH]1 | 10.8%

Each molecule was assayed on A498 (assay: Antitumor activity against human A498 cells assessed as cell growth inhibition at 10 uM incubated for 48 hrs by sulforhodamine B assay). Details: read-out: GI.
Format: functional

Row | Structure (SMILES) | inhibition of growth at 10 µM
11 | Oc1ccccc1-c1nc2c3ccccc3c3ccccc3c2[nH]1 | < 10%

These molecules were tested on LOX IMVI (assay: Antitumor activity against human LOX IMVI cells assessed as cell growth inhibition at 10 uM incubated for 48 hrs by sulforhodamine B assay). Details: read-out: GI.
Format: functional

Row | Structure (SMILES) | inhibition of growth at 10 µM
12 | Oc1ccccc1-c1nc2c3ccccc3c3ccccc3c2[nH]1 | < 10%

Each molecule was assayed on SK-OV-3 (assay: Antitumor activity against human SK-OV-3 cells assessed as cell growth inhibition at 10 uM incubated for 48 hrs by sulforhodamine B assay). Details: read-out: GI.
Format: functional

Row | Structure (SMILES) | inhibition of growth at 10 µM
13 | Oc1ccccc1-c1nc2c3ccccc3c3ccccc3c2[nH]1 | < 10%

These molecules were tested on UO-31 (assay: Antitumor activity against human UO-31 cells assessed as cell growth inhibition at 10 uM incubated for 48 hrs by sulforhodamine B assay). Details: read-out: GI.
Format: functional

Row | Structure (SMILES) | inhibition of growth at 10 µM
14 | Oc1ccccc1-c1nc2c3ccccc3c3ccccc3c2[nH]1 | 37.9%

Each molecule was assayed on Hs-578T (assay: Antitumor activity against human HS 578T cells assessed as cell growth inhibition at 10 uM incubated for 48 hrs by sulforhodamine B assay). Details: read-out: GI.
Format: functional

Row | Structure (SMILES) | inhibition of growth at 10 µM
15 | Oc1ccccc1-c1nc2c3ccccc3c3ccccc3c2[nH]1 | < 10%

What follows are molecules tested on SN12C (assay: Antitumor activity against human SN12C cells assessed as cell growth inhibition at 10 uM incubated for 48 hrs by sulforhodamine B assay). Details: read-out: GI.
Format: functional

Row | Structure (SMILES) | inhibition of growth at 10 µM
16 | Oc1ccccc1-c1nc2c3ccccc3c3ccccc3c2[nH]1 | 24.4%

Each molecule was assayed on U-251 (assay: Antitumor activity against human U251 cells assessed as cell growth inhibition at 10 uM incubated for 48 hrs by sulforhodamine B assay). Details: read-out: GI.
Format: functional

Row | Structure (SMILES) | inhibition of growth at 10 µM
17 | Oc1ccccc1-c1nc2c3ccccc3c3ccccc3c2[nH]1 | < 10%

Each molecule was assayed on ACHN (assay: Antitumor activity against human ACHN cells assessed as cell growth inhibition at 10 uM incubated for 48 hrs by sulforhodamine B assay). Details: read-out: GI.
Format: functional

Row | Structure (SMILES) | inhibition of growth at 10 µM
18 | Oc1ccccc1-c1nc2c3ccccc3c3ccccc3c2[nH]1 | 11.7%

What follows are molecules tested on OVCAR-8 (assay: Antitumor activity against human OVCAR-8 cells assessed as cell growth inhibition at 10 uM incubated for 48 hrs by sulforhodamine B assay). Details: read-out: GI.
Format: functional

Row | Structure (SMILES) | inhibition of growth at 10 µM
19 | Oc1ccccc1-c1nc2c3ccccc3c3ccccc3c2[nH]1 | < 10%

What follows are molecules tested on M14 (assay: Antitumor activity against human M14 cells assessed as cell growth inhibition at 10 uM incubated for 48 hrs by sulforhodamine B assay). Details: read-out: GI.
Format: functional

Row | Structure (SMILES) | inhibition of growth at 10 µM
20 | Oc1ccccc1-c1nc2c3ccccc3c3ccccc3c2[nH]1 | < 10%

These molecules were tested on KM12 (assay: Antitumor activity against human KM12 cells assessed as cell growth inhibition at 10 uM incubated for 48 hrs by sulforhodamine B assay). Details: read-out: GI.
Format: functional

Row | Structure (SMILES) | inhibition of growth at 10 µM
21 | Oc1ccccc1-c1nc2c3ccccc3c3ccccc3c2[nH]1 | < 10%

These molecules were tested on CCRF-CEM (assay: Antitumor activity against human CCRF-CEM cells assessed as cell growth inhibition at 10 uM incubated for 48 hrs by sulforhodamine B assay). Details: read-out: GI.
Format: functional

Row | Structure (SMILES) | inhibition of growth at 10 µM
22 | Oc1ccccc1-c1nc2c3ccccc3c3ccccc3c2[nH]1 | < 10%

Each molecule was assayed on RXF 393 (assay: Antitumor activity against human RXF 393 cells assessed as cell growth inhibition at 10 uM incubated for 48 hrs by sulforhodamine B assay). Details: read-out: GI.
Format: functional

Row | Structure (SMILES) | inhibition of growth at 10 µM
23 | Oc1ccccc1-c1nc2c3ccccc3c3ccccc3c2[nH]1 | < 10%

The molecules below were run on SK-MEL-28 (assay: Antitumor activity against human SK-MEL-28 cells assessed as cell growth inhibition at 10 uM incubated for 48 hrs by sulforhodamine B assay). Details: read-out: GI.
Format: functional

Row | Structure (SMILES) | inhibition of growth at 10 µM
24 | Oc1ccccc1-c1nc2c3ccccc3c3ccccc3c2[nH]1 | < 10%
